Test systems include IGROV1 ovarian; SW-620 colon; ACHN renal; NCI-H226 lung; KM12 colon; CAKI-1 renal; RXF 393 renal; PC-3 prostate; DU-145 prostate; HS 578T breast.
Assay in all cases: growth of human tumour cells (NCI), 48 h

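Growth conditions: 96-well plates. Treatment: test compound, 48 hours, 5 concentrations. Analysis: linear interpolation between bracketing concentrations; unreached endpoints set to highest concentration. TGI: concentration producing complete growth inhibition.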 Bounds are passed on as bounds.

For `COc1cc2c(cc1OC)C(=O)C(C1=C(SC(=N)N)C(=O)c3cc(OC)c(OC)cc31)C2` (configuration not stated), the TGI with IGROV1 ovarian, in the assay with SW-620 colon, in the assay on ACHN renal, with NCI-H226 lung, in the assay on KM12 colon and in the assay on CAKI-1 renal was above 100 µM in each case.
Consider `C=CCN(C)CN(C)c1nc(N(C)C)nc(N(C)C)n1`, for which the TGI in the assay with IGROV1 ovarian, with SW-620 colon, in the assay with ACHN renal, with KM12 colon and in the assay on CAKI-1 renal was above 100 µM throughout.
For the compound `Cn1c2cc(O)cc(O)c2c(=O)c2c([N+](=O)[O-])cccc21`, the TGI in the assay on IGROV1 ovarian, in the assay with SW-620 colon, in the assay on ACHN renal, with NCI-H226 lung, in the assay on KM12 colon and with CAKI-1 renal was above 100 µM throughout. In the assay with RXF 393 renal, this compound had a TGI above 100 µM.
With `Cc1c2c(n(CCN(C)C)c1C)NN=C(C#N)S2(=O)=O`, the TGI in the assay on IGROV1 ovarian, with PC-3 prostate, in the assay on DU-145 prostate, in the assay with HS 578T breast, with SW-620 colon and in the assay with ACHN renal was above 100 µM in each case. Besides, the TGI in the assay on NCI-H226 lung and in the assay on KM12 colon was above 100 µM each time.
Regarding `O=c1cc(-c2ccccc2)oc2cc(OCCSCCCCCCCCCCSCCOc3ccc4c(=O)cc(-c5ccccc5)oc4c3)ccc12`, the TGI in the assay with IGROV1 ovarian, with SW-620 colon, in the assay on ACHN renal, with KM12 colon, in the assay on CAKI-1 renal and with RXF 393 renal was above 100 µM in each case.
Regarding `Nc1nc(Cl)c2nnn(CC3CCC(CO)C3)c2n1` (configuration not stated), the TGI in the assay on PC-3 prostate, in the assay on DU-145 prostate, in the assay with HS 578T breast, in the assay with SW-620 colon, in the assay with ACHN renal and in the assay with NCI-H226 lung was above 100 µM in each case. For the same compound, the TGI in the assay with KM12 colon, in the assay with CAKI-1 renal and with RXF 393 renal was above 100 µM in each case.
As for `CCOC(=O)c1ccc(-n2c(SCC)nc3sc(C)c(C)c3c2=O)cc1`, the TGI with IGROV1 ovarian, with SW-620 colon, in the assay with ACHN renal, with NCI-H226 lung, in the assay with KM12 colon and with CAKI-1 renal was above 100 µM each time. The compound also had a TGI with RXF 393 renal above 100 µM.
`CC(C)C(/C=C/c1ccc(Br)cc1)=N\NC(N)=O`: the TGI in the assay with IGROV1 ovarian, in the assay on SW-620 colon, with ACHN renal, in the assay with NCI-H226 lung, in the assay on KM12 colon and with CAKI-1 renal was above 100 µM each time. Also, in the assay on RXF 393 renal, the TGI is above 100 µM.
Turning to `[N-]=[N+]=NC(CBr)c1cn([C@H]2C[C@H](O)[C@@H](CO)O2)c(=O)[nH]c1=O` (some centres not stated), the TGI with IGROV1 ovarian, with SW-620 colon, in the assay on ACHN renal, with NCI-H226 lung, in the assay with KM12 colon and in the assay with CAKI-1 renal was above 100 µM in each case. In the assay on RXF 393 renal, this compound gave a TGI above 100 µM.
Take `C=CC[C@@H]1C(=O)[C@@]2(O[Si](C(C)C)(C(C)C)C(C)C)CC[C@@H]1C[C@H]2NC(=O)OCC(Cl)(Cl)Cl`: the TGI in the assay on PC-3 prostate, in the assay on DU-145 prostate, with HS 578T breast, in the assay on SW-620 colon, with ACHN renal and in the assay on NCI-H226 lung was above 100 µM each time. For the same compound, the TGI in the assay with KM12 colon and in the assay on CAKI-1 renal was above 100 µM throughout.
Regarding `CSc1nc2[nH]c(=O)c(C)nc2c(=O)[nH]1`, the TGI in the assay on IGROV1 ovarian, in the assay on SW-620 colon, in the assay with ACHN renal, with KM12 colon, with CAKI-1 renal and in the assay with RXF 393 renal was above 100 µM in each case.
Take `O=C1CC(=O)N(CCc2ccccc2)S(=O)(=O)N1CCc1ccccc1`: the TGI with IGROV1 ovarian was 42 µM; with SW-620 colon, above 100 µM; in the assay with ACHN renal it was above 100 µM; with KM12 colon it was 39.5 µM; in the assay on CAKI-1 renal, 51.4 µM; in the assay with RXF 393 renal it was 83.4 µM.
Consider `COc1c(O)c2c(=O)cc(OC)c3c4c(OC)cc(=O)c5c(O)c(OC)c6c(c(c1C(C(C)=O)C6C(C)O)c23)c54` (configuration not stated), for which the TGI is 1 µM in the assay with IGROV1 ovarian; 0.971 µM in the assay on PC-3 prostate; 1.74 µM in the assay on DU-145 prostate; 1.81 µM in the assay on HS 578T breast; 0.469 µM in the assay with SW-620 colon; 1.09 µM in the assay with ACHN renal. Also, the TGI in the assay with NCI-H226 lung was determined as 3.65 µM; with KM12 colon it was 1.07 µM.
Regarding `COc1cc(/C=C2/C(=O)N(C(=O)c3ccc(Cl)cc3)N=C2C)cc(OC)c1OC`, the TGI with IGROV1 ovarian, with SW-620 colon, in the assay on ACHN renal, in the assay with KM12 colon, in the assay with CAKI-1 renal and in the assay with RXF 393 renal was above 100 µM throughout.
As to `O=C(O)C12CCCC(CCC1)C2`, the TGI in the assay on IGROV1 ovarian, with SW-620 colon, in the assay on ACHN renal, in the assay on KM12 colon, with CAKI-1 renal and in the assay on RXF 393 renal was above 100 µM each time.

Values taken from PubChem BioAssay (NCI).
